Laboratory results as given in ChEMBL document CHEMBL1201862, “PubChem BioAssay data set” (2004).
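Five concentrations, 48 hours, 96-well plates. GI50 = concentration required for 50% inhibition of growth.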 The source made the active and inactive calls. Cut-off read from the data, not from the text of the source: active = GI50 up to about 1.1 µM and inactive = higher.

Tests used:
Assay in all cases: growth of human tumour cells (NCI), 48 h
[1] = test system: EKVX
[2] = test system: 786-0
[3] = test system: NCI-H460
[4] = test system: CAKI-1
[5] = test system: HL-60
[6] = test system: NCI-H522
[7] = test system: HOP-92
[8] = test system: PC-3
[9] = test system: SK-MEL-28
[10] = test system: SR
[11] = test system: DU-145
[12] = test system: OVCAR-3
[13] = test system: OVCAR-4
[14] = test system: HCT-15
[15] = test system: SF-295
[16] = test system: A549
[17] = test system: Hs-578T
[18] = test system: SK-MEL-2
[19] = test system: MOLT-4
[20] = test system: RPMI-8226

Row | SMILES | GI50 [1] | GI50 [2] | GI50 [3] | GI50 [4] | GI50 [5] | GI50 [6] | GI50 [7] | GI50 [8] | GI50 [9] | GI50 [10] | GI50 [11] | GI50 [12] | GI50 [13] | GI50 [14] [µM] | GI50 [15] | GI50 [16] | GI50 [17] | GI50 [18] | GI50 [19] | GI50 [20]
1 | Oc1ccccc1/C=N/Nc1nc(N/N=C/c2ccccc2O)nc(N/N=C/c2ccccc2O)n1 | > 100 µM (inactive) | 40.2 µM (inactive) | 44.8 µM (inactive) | > 100 µM (inactive) | > 100 µM (inactive) | 31.6 µM (inactive) | 21.1 µM (inactive) | 78.2 µM (inactive) | > 100 µM (inactive) | > 100 µM (inactive) | > 100 µM (inactive) | 29.2 µM (inactive) | > 100 µM (inactive) | 13.3 | 86.1 µM (inactive) | > 100 µM (inactive) | 46.5 µM (inactive) | 43.6 µM (inactive) | 10.5 µM (inactive) | 
2 | CCCCCCc1nn2c(-c3ccncc3)nnc2s1 | > 10 µM (inactive) | > 10 µM (inactive) | > 10 µM (inactive) | > 10 µM (inactive) | > 10 µM (inactive) | > 10 µM (inactive) | 8.65 µM (inactive) | > 10 µM (inactive) | > 10 µM (inactive) | > 10 µM (inactive) | > 10 µM (inactive) | > 10 µM (inactive) | > 10 µM (inactive) | > 10 | > 10 µM (inactive) | > 10 µM (inactive) | > 10 µM (inactive) | > 10 µM (inactive) | > 10 µM (inactive) | > 10 µM (inactive)
3 | CC1(C)O[C@@H](CBr)C[C@H](C[C@H]2C[C@@H](O)C[C@@H](CCOCc3ccccc3)O2)O1 | 17.8 µM (inactive) | 19.4 µM (inactive) | 29.9 µM (inactive) | 27.8 µM (inactive) |  | 16.4 µM (inactive) | 25.5 µM (inactive) | 20.1 µM (inactive) | 25.2 µM (inactive) | 27.7 µM (inactive) | 25.4 µM (inactive) | 19.4 µM (inactive) | 21.6 µM (inactive) | 24.2 | 17 µM (inactive) | 23.9 µM (inactive) | 25.6 µM (inactive) | 16.4 µM (inactive) | 47.1 µM (inactive) | 27.5 µM (inactive)
4 | N=C(N)c1ccc(/N=N\c2c(O)c(C(=O)Nc3ccccc3)cc3ccccc23)cc1 | 17 µM (inactive) | 10.8 µM (inactive) | 24.8 µM (inactive) | > 58.9 µM (inactive) | 7.98 µM (inactive) | 10.1 µM (inactive) | 16.4 µM (inactive) | 17.9 µM (inactive) | > 100 µM (inactive) | 7.89 µM (inactive) | > 100 µM (inactive) | 32.7 µM (inactive) | 17.8 µM (inactive) | 18.1 | > 60.3 µM (inactive) | > 59.6 µM (inactive) | 27.3 µM (inactive) | 68.1 µM (inactive) | 2.58 µM (inactive) | 4.6 µM (inactive)
5 | CC(=O)Oc1ccn2nc(C)c(Br)c2c1Br | 29 µM (inactive) | 36.5 µM (inactive) | 21.5 µM (inactive) | 2.88 µM (inactive) | 29 µM (inactive) | 17.6 µM (inactive) | 19.4 µM (inactive) | 18.4 µM (inactive) | 21.4 µM (inactive) | 40.9 µM (inactive) | 59.4 µM (inactive) | 17.6 µM (inactive) | 16.8 µM (inactive) | 16.9 | 30.5 µM (inactive) | 23.1 µM (inactive) | 29.6 µM (inactive) | 27.5 µM (inactive) | 15.3 µM (inactive) | 
6 | Clc1ccc(C2=NNC(c3cccc(Cl)c3)C2)cc1 (configuration not stated) | 23.4 µM (inactive) | 28.3 µM (inactive) | 28.5 µM (inactive) | 26.2 µM (inactive) | 34.5 µM (inactive) | 2.98 µM (inactive) | 10.8 µM (inactive) | 24.9 µM (inactive) |  | 41.9 µM (inactive) | 36.9 µM (inactive) | 28.6 µM (inactive) | 32.8 µM (inactive) |  | 29.1 µM (inactive) | 23.2 µM (inactive) | 28.8 µM (inactive) | 0.362 µM (active) | 27.1 µM (inactive) | 17.1 µM (inactive)
7 | CN1CC(S(=O)(=O)c2ccccc2)CC(S(=O)(=O)c2ccccc2)C1c1ccccc1 (configuration not stated) | 14.3 µM (inactive) | 12.2 µM (inactive) | 16.2 µM (inactive) | 10.8 µM (inactive) | 8.81 µM (inactive) | 2.9 µM (inactive) | 18.2 µM (inactive) | 12.1 µM (inactive) | 15.9 µM (inactive) | 6.22 µM (inactive) | 18 µM (inactive) | 12.3 µM (inactive) | 12 µM (inactive) | 12.4 | 29.4 µM (inactive) | 32.7 µM (inactive) | 20.9 µM (inactive) | 4.47 µM (inactive) | 16.8 µM (inactive) | 
8 | CCCN(C(=O)c1ccccc1)C(C#N)c1ccc(C(C#N)N(CCC)C(=O)c2ccccc2)cc1 (configuration not stated) | 58.3 µM (inactive) | 38.1 µM (inactive) |  | > 100 µM (inactive) | > 100 µM (inactive) | > 100 µM (inactive) | 16.3 µM (inactive) | 68.9 µM (inactive) |  | > 100 µM (inactive) | 77.6 µM (inactive) | > 100 µM (inactive) | 14.5 µM (inactive) | > 100 | 42.4 µM (inactive) | 56.6 µM (inactive) | 24.9 µM (inactive) | > 100 µM (inactive) | > 100 µM (inactive) | > 100 µM (inactive)
9 | O=C(c1ccco1)N(Cc1ccco1)C(=S)Nc1ccccc1 | 45.9 µM (inactive) | 6.3 µM (inactive) | 49.1 µM (inactive) | 7.08 µM (inactive) | 1.79 µM (inactive) | 16.9 µM (inactive) | 7.53 µM (inactive) | 30.5 µM (inactive) | 15 µM (inactive) | 3.1 µM (inactive) | 33.2 µM (inactive) | 15.7 µM (inactive) | 25.6 µM (inactive) | 9.2 | 32.2 µM (inactive) | 29.7 µM (inactive) | 19.3 µM (inactive) | 18.8 µM (inactive) | 7.08 µM (inactive) | 3.1 µM (inactive)
10 | COc1cc2nc3c(=C(C#N)C#N)c4ccccc4n3c(=O)c2cc1OC | > 100 µM (inactive) | > 100 µM (inactive) | > 100 µM (inactive) | > 100 µM (inactive) |  | > 100 µM (inactive) | 36.5 µM (inactive) | > 100 µM (inactive) |  | > 100 µM (inactive) | > 100 µM (inactive) | > 100 µM (inactive) | > 100 µM (inactive) | > 100 | > 100 µM (inactive) | > 100 µM (inactive) | 44.3 µM (inactive) | > 100 µM (inactive) | > 100 µM (inactive) | > 100 µM (inactive)
11 | Nc1nc(=O)n(C2OC(CO)C(O)C2O)c2ncc(-c3ccc(-c4ccccc4)cc3)nc12 (configuration not stated) | 94.8 µM (inactive) | 28.4 µM (inactive) | > 100 µM (inactive) | > 100 µM (inactive) |  | > 100 µM (inactive) | > 100 µM (inactive) | > 100 µM (inactive) |  | 3.63 µM (inactive) | > 100 µM (inactive) |  | > 100 µM (inactive) | > 100 | > 100 µM (inactive) | > 100 µM (inactive) | > 100 µM (inactive) | > 100 µM (inactive) | > 100 µM (inactive) | > 100 µM (inactive)
12 | CC(C)=CCC[C@@H](C)/C=C/C=C(\C)C(=O)CC[C@@H]1CC[N@+]2(C)CCCC[C@H]12 | > 100 µM (inactive) | > 100 µM (inactive) | > 100 µM (inactive) | > 100 µM (inactive) |  | 35 µM (inactive) | 6.44 µM (inactive) | 31 µM (inactive) | > 100 µM (inactive) | > 100 µM (inactive) | > 100 µM (inactive) | 32.9 µM (inactive) | > 100 µM (inactive) | > 100 | > 100 µM (inactive) | > 100 µM (inactive) | 96.4 µM (inactive) | > 100 µM (inactive) | > 100 µM (inactive) | 70 µM (inactive)
13 | CN(C)CCCn1nc(N)c2nc3cc(Cl)ccc3nc21 | > 66.5 µM (inactive) | 50.7 µM (inactive) | 39.3 µM (inactive) | > 79.6 µM (inactive) |  | 61.9 µM (inactive) | 25.3 µM (inactive) | 41.4 µM (inactive) | 18.1 µM (inactive) | 32.5 µM (inactive) | 54.8 µM (inactive) | 99.8 µM (inactive) | > 100 µM (inactive) | 48.9 | > 77.1 µM (inactive) | 37.1 µM (inactive) | 41.4 µM (inactive) | 28.3 µM (inactive) | > 50.4 µM (inactive) | 60.3 µM (inactive)
14 | O=S(=O)(O)c1ccc2cccc(/N=N\c3c(O)ccc4ccccc34)c2c1 | > 100 µM (inactive) | > 100 µM (inactive) | > 100 µM (inactive) | > 100 µM (inactive) | > 100 µM (inactive) | > 100 µM (inactive) | > 100 µM (inactive) | > 100 µM (inactive) |  | > 100 µM (inactive) | > 100 µM (inactive) | > 100 µM (inactive) | > 100 µM (inactive) | > 100 | > 100 µM (inactive) | > 100 µM (inactive) | > 100 µM (inactive) | > 100 µM (inactive) | > 100 µM (inactive) | 
15 | COc1ccc2c(c1)/C(=C\c1c(Cl)n(-c3ccccc3)c3ccccc13)C(=O)N2 | 5.86 µM (inactive) | 8.45 µM (inactive) | 5.07 µM (inactive) | 4.08 µM (inactive) | 2.72 µM (inactive) |  | 2.08 µM (inactive) | 7.23 µM (inactive) | 9.31 µM (inactive) | 2.59 µM (inactive) | 5.89 µM (inactive) | 2.25 µM (inactive) | 9.2 µM (inactive) | 2.36 | 3.91 µM (inactive) | 4.34 µM (inactive) | 0.479 µM (active) | 6.73 µM (inactive) | 2.23 µM (inactive) | 1.38 µM (inactive)
